Data as given in PMC7362424, “Structural elucidation, molecular docking, α-amylase and α-glucosidase inhibition studies of 5-amino-nicotinic acid derivatives” (BMC Chemistry, 2020).

Melting point, > 300 °C:
O=C(O)c1cncc(NC(=S)Nc2ccccc2)c1 [Compound 1, 5-(3-Phenylthioureido)pyridine-3-carboxylic acid]
O=C(O)c1cncc(NC(=S)Nc2ccc(Cl)cc2)c1 [Compound 2, 5-(3-(4-Chlorophenyl)thioureido)pyridine-3-carboxylic acid]
Cc1ccc(NC(=S)Nc2cncc(C(=O)O)c2)cc1 [Compound 3, 5-(3-p-Tolylthioureido)pyridine-3-carboxylic acid]
O=C(O)c1cncc(NC(=S)Nc2ccc(F)cc2)c1 [Compound 4, 5-(3-(4-Fluorophenyl)thioureido)pyridine-3-carboxylic acid]
O=C(O)c1cncc(NC(=S)Nc2ccc([N+](=O)[O-])cc2)c1 [Compound 5, 5-(3-(4-Nitrophenyl)thioureido) pyridine-3-carboxylic acid]
COc1ccc(NC(=S)Nc2cncc(C(=O)O)c2)cc1 [Compound 6, 5-(3-(4-Methoxyphenyl)thioureido) pyridine-3-carboxylic acid]
O=C(O)c1cncc(NC(=S)Nc2ccc(Br)cc2)c1 [Compound 7, 5-(3-(4-Bromophenyl)thioureido) pyridine-3-carboxylic acid]
O=C(O)c1cncc(NC(=S)Nc2ccc(C(F)(F)F)cc2)c1 [Compound 8, 5-(3-(4-(Trifluoromethyl)phenyl)thioureido) pyridine-3-carboxylic acid]
Cc1ccc(NC(=S)Nc2cncc(C(=O)O)c2)cc1Cl [Compound 9, 5-(3-(3-Chloro-4-methylphenyl)thioureido) pyridine-3-carboxylic acid]
O=C(O)c1cncc(NC(=S)Nc2ccccc2F)c1 [Compound 10, 5-(3-(2-Fluorophenyl)thioureido) pyridine-3-carboxylic acid]
O=C(O)c1cncc(NC(=S)Nc2cccc(F)c2)c1 [Compound 11, 5-(3-(3-Fluorophenyl)thioureido) pyridine-3-carboxylic acid]
O=C(O)c1cncc(NC(=S)Nc2ccccc2Br)c1 [Compound 12, 5-(3-(2-Bromophenyl)thioureido) pyridine-3-carboxylic acid]
O=C(O)c1cncc(NC(=S)Nc2cccc(Br)c2)c1 [Compound 13, 5-(3-(3-Bromophenyl)thioureido) pyridine-3-carboxylic acid]
